Holding throughout (format): cell-based
Assay [1] deals with strains of B. subtilis, E. coli, S. aureus, S. pneumoniae, and H. influenzae, including several multidrug-resistant strains. Put plainly: CLSI broth dilution MIC determination, whole panel of strains. As to conditions: from MIC data, Tables B1-B13. The text has this: MIC data was collected for the novel macrolides that this platform has produced against over 21 unique strains of B. subtilis, E. coli, S. aureus, S. pneumoniae, and H. influenzae, including several multidrug-resistant strains, with a special focus on macrolide resistant mechanisms (vide supra). Azithromycin (Azithro) and Solithromycin (Solithro) were included as a control macrolides in many cases. CLSI standard procedures for broth dilution MIC determination were used. […] These genotypes can be constitutive or inducible.
For orientation: In broth dilution the organism is exposed to a series of concentrations in liquid medium.

In assay [2] the test system is S. pneumoniae mef A genotype (first strain so labelled). Put plainly: CLSI broth dilution MIC determination. The settings on record: Streptococcus pneumoniae, first strain (MP-626 UNT-038). In a few lines:
(§1)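 The lowest inhibitory concentration was found by broth dilution done to CLSI standards. Resistance genotypes on the panel can be constitutive or inducible, and azithromycin and solithromycin accompany many tests as reference macrolides.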

In another assay the test system is P. aeruginosa MP-7 PAO1. In words: CLSI broth dilution MIC determination. As to conditions: Pseudomonas aeruginosa, read-out: MIC.
The test system of assay [3] is A. baumannii MP-576 Clinical-MDR. Put plainly: CLSI broth dilution MIC determination. As to conditions: Acinetobacter baumannii, read-out: MIC.
The test system of assay [4] is A. baumannii MP-577 Clinical-AZT low. In words: CLSI broth dilution MIC determination. As to conditions: Acinetobacter baumannii, read-out: MIC.
The test system of assay [5] is S. aureus (MRSA) MP-513 ST-228 cErm (Clinical-cErm). Put plainly: CLSI broth dilution MIC determination. The settings on record: Staphylococcus aureus, read-out: MIC. The gist of the method: as §1
The test system of another assay is E. coli MP-541 clinical. Put plainly: CLSI broth dilution MIC determination. The settings on record: Escherichia coli, MP541CLINICAL, read-out: MIC. In a few lines: as §1
The test system of assay [6] is S. aureus MP-17 ATCCBAA-977 (BAA 977 iErm). Put plainly: CLSI broth dilution MIC determination. The settings on record: Staphylococcus aureus. The gist of the method: as §1
Assay [7] has as its system E. coli MP-9 ATCC25922:tolC. In words: CLSI broth dilution MIC determination. As to conditions: Escherichia coli, ATCC25922. The gist of the method: as §1
Assay [8] deals with E. coli MP-532 clinical-cErmB. In words: CLSI broth dilution MIC determination. The settings on record: Escherichia coli. In a few lines:
as §1

Assay [9] relates to P. aeruginosa MP-8 PAO1:mex (mex-oprM-deletion). In words: CLSI broth dilution MIC determination. The settings on record: Pseudomonas aeruginosa, PAO1.
Assay [10] has as its system K. pneumoniae MP-548 clinical. In words: CLSI broth dilution MIC determination. The settings on record: Klebsiella pneumoniae, MP548CLINICAL, read-out: MIC.

Two compounds from patent US10633407B2, “14-membered ketolides and methods of their preparation and use” (President and Fellows of Harvard College, priority 2014, dated 2020) can be followed below.

Converted amounts (≈) assume the structure as drawn.

The MIC is the lowest concentration found to suppress growth. As for `CC[C@H]1OC(=O)[C@@](C)(F)C(=O)[C@H](C)[C@@H](O[C@@H]2OC(C)CC(N(C)C)C2O)[C@](C)(OC)C[C@@H](C)C(=O)[C@H](C)[C@H]2N(CC#CCn3cc(-c4cccc(N)c4)nn3)C(=O)O[C@]12C` (stereo partly drawn) [FSM-100426], the “potency compared with solithromycin” value in [1] is reported as “more potent”. Besides, the MIC in [2] was < 0.0312 µg/mL.

For `CC[C@H]1OC(=O)[C@@](C)(F)C(=O)[C@H](C)[C@@H](OC2OC(C)CC(N(C)C)C2O)[C@](C)(OC)C[C@@H](C)C(=O)[C@H](C)[C@H]2N(CCCCn3cc(-c4cccc(N)c4)nn3)C(=O)O[C@]12C` (stereo partly drawn) [Solithro, solithromycin, reference compound], the minimum inhibitory concentration (MIC) was > 32 µg/mL in the assay on P. aeruginosa MP-7 PAO1; > 32 µg/mL in assay [3]; 32 µg/mL (≈ 37.9 µM) in assay [4]; > 32 µg/mL in assay [5]; 16 µg/mL (≈ 18.9 µM) with E. coli MP-541 clinical; 0.125 µg/mL (≈ 0.148 µM) in assay [6]. The MIC in assay [7] is 4 µg/mL (≈ 4.73 µM); in assay [8], > 32 µg/mL; in assay [9], 8 µg/mL (≈ 9.47 µM); in assay [10], 32 µg/mL (≈ 37.9 µM).
